Data: patent US5856115A, “Assay for identification therapeutic agents” (priority 1994, dated 1999)

Tests used:
[1] = system: lyso-PA acyl transferase (LPAAT); experiment: Inhibition of LPAAT shown by the invention assay; format: cell-based, human
Experimental: (§1) This example also illustrates the method of the invention.
(§2) Human glomerular mesangial cells were incubated with IL-1 for various time periods of 5-60 seconds and the cells were fixed in ice-cold methanol, and the lipids extracted using chloroform:methanol 2:1 (v/v). It is very important that the fixing/extraction process be conducted quickly so that the decomposition of unstable intermediates is halted.
(§3) The extracts were subjected to HPLC on a Rainin mu-Porasil column with a 3:4 hexane:propanol organic carrier and a 1-10% water gradient during the first 10 minutes of separation. The relative concentration of each lipid species is determined using absorption at 206 nm (A206), which follows unsaturated acyl content of lipid species. […] The absolute mass of each lipid species is determined by isolation of the lipid using a fraction collector, repurification on the HPLC column. Determination of phospholipid phosphorus is as nmoles/mg cellular protein. Protein concentration is determined using the Bradford technique.
(§4) Thus, the lyso PA that accumulates contains high levels of unsaturated fatty acids. Pentoxifylline in a dose range greater than 500 μM results in inhibition both of phosphatidate phosphohydrolase and of lyso PA acyl transferase.

[2] = system: phosphatidic acid phosphohydrolase (PAPH); experiment: Inhibition of PAPH shown by the invention assay; format: cell-based, human
Experimental: as §1, §2, §3, §4

[3] = system: Human glomerular mesangial cells stimulated with IL-1; experiment: Invention assay: HPLC of lipids (PA, DAG) from mesangial cells stimulated with IL-1; format: cell-based
Experimental: The compounds of Formula I are shown to modulate the effects of primary stimuli which elevate levels of the relevant subspecies of PA and DAG using the assay system of the invention. In general for the assay, the cells to be tested are first incubated with the primary stimulating agent for various time periods and fixed in ice-cold methanol. The lipids are extracted using, for example, chloroform:methanol 2:1 (v/v), and the extracts are then subjected to HPLC as described by Bursten and Harris, Biochemistry (1991). In this method, a Rainin mu-Porasil column is used with a 3:4 hexane:propanol organic carrier and a 1-10% water gradient during the first 10 minutes of separation. Detection of the peaks in the elution pattern is by absorption in the range of ultraviolet which detects isolated double bonds. Thus, the relevant peaks of unsaturated PA and DAG are shown in the elution pattern. It is important to note that the assay method permits discrimination between various forms of PA and DAG so that those relevant to the pathway affected by the compounds of Formula I can be measured directly. Confirmation of the nature of the acyl substituents of these components is accomplished using fast-atom bombardment mass spectroscopy. Thus, the relevant unsaturated (non-arachidonic) PA and DAG subspecies may be detected. The time periods employed are 5-60 seconds after stimulation with the primary stimulus, such as a cytokine. This technique permits assessment of the levels of various lipid components as a function of time.
To test the effect of the compounds of the invention, the candidate compound is included in the initial incubation at various concentrations. Fixing, extraction and HPLC are conducted as above. The effect of the candidate compound is then reflected in a lowering of the relevant PA and DAG levels as compared to the cells without candidate in the control as illustrated hereinbelow.
as §2, §3
After contacting HMC with 10^-11 M interleukin-1, a marked redistribution of phospholipids and metabolites is apparent within 5 seconds (FIG. 2), including a significant increase in PA and DAG. FIGS. 3 and 4 show the HPLC after stimulation with IL-1 for 15 seconds and 60 seconds, respectively. PA has been converted into DAG by action of phosphatidate phosphohydrolase at 15 seconds; but the PA peak reappears after 60 seconds.
The HMC were also reacted with 10^-11 M IL-1 in the presence of various concentrations of pentoxifylline. […] A large peak representing pentoxifylline is present.

[4] = system: patients undergoing allogeneic bone marrow transplant; experiment: Preliminary study in allogeneic bone marrow transplant patients; format: in vivo, human; conditions: first 30 days post-transplant
Experimental: A preliminary study was conducted on patients undergoing allogeneic bone marrow transplant for multiple myeloma, for lymphoid malignancies, or for advanced stage CML or AML. Prednisone is often administered as an immunosuppressant in all experimental groups. In the study, these patients received the drugs for a minimum of 3 days to a maximum of 7 days prior to starting their preparative regimen while in the outpatient department according to the following regimen:
PTX: 600 mg p.o. qid at 9 am, 1 pm, 5 pm and 9 pm;
CIPRO: 500 mg p.o.b.i.d.; and
PD: 0.5 mg/kg b.i.d. (total 1 mg/kg/day changed to methylprednisolone at an equivalent dose starting on day-1).
For the duration of therapy, the patients are continued on the study drugs as follows:
PTX: until day +20 post-transplant then tapered 600 mg/day until off;
CIPRO: until day 30 post-transplant or day of discharge if sooner than day 30; and
PD: tapered starting on day 0 over 14 days until off.
All patients in these studies received PD and cyclosporin as GVHD prophylaxis.

[5] = system: recipients of marrow from unrelated donors; experiment: Unrelated donor trial; format: in vivo, human
Excerpt: (§5) They are given steroids to reduce inflammation. […] In this group of patients, GVHD approaches 90%.
Again, the general results were improved as compared to either standard therapy or GM-CSF.

[6] = system: recipients of matched allogeneic donor marrow; experiment: Matched allogeneic donor trial; format: in vivo, human
Excerpt: as §5
Again, engraftment was improved, toxicity diminished and survival improved as compared either to standard treatment or to treatment with GM-CSF.

T cell proliferation = conditions: Singer et al., cited from earlier work
[7] = system: Steel factor transcripts in marrow stromal cell lines; experiment: Northern blot of Steel factor transcripts in marrow stromal cell lines; format: cell-based; conditions: three-hour incubation, passaged or cloned (CDCL) lines
[8] = system: SV40 T-antigen-transformed human kidney mesangial cells; experiment: Tritiated thymidine uptake of transformed mesangial cells with rhIL-1 or TNFα; format: cell-based
Experimental: SV40 T-antigen-transformed human kidney mesangial cells were cultured under standard conditions with rhIL-1 or with TNFα with and without pentoxifylline (PTX). Transformed mesangial cells grow independently of added growth factors, but IL-1 and TNFα are the normal proliferative signals for mesangial cells. As was shown in Example 1, when IL-1 is added to kidney mesangial cells, within 30 seconds LPAAT and PAPH are activated; the effect of both of these enzymes is inhibited by pentoxifylline at 1 mM. In this experiment, the growth of the treated cells was measured using tritiated thymidine uptake.

[9] = system: IL-8 mRNA in U937 and THP1; experiment: Northern blot of IL-8 mRNA in monocytic cell lines induced by lipopolysaccharide or GM-CSF; format: cell-based
Experimental: The murine fibrosarcoma cell line, L929, was also tested as an indicator for assays of TNF cytotoxicity. Cell growth was assayed by crystal violet staining using optical density as a measure of growth. […] Finally, two monocytic cell lines, U937 and THP1, were used to test the effect of pentoxifylline on the […] of the cytokine IL-8. The cell lines in culture were induced to upregulate IL-8 production by lipopolysaccharide or GM-CSF.

[10] = system: NIH3T3 murine fibroblast cells transformed with a mutated K-ras; experiment: Growth and soft agar colonies of K-ras transformed NIH3T3 cells in vitro; format: cell-based; conditions: concentrations at or greater than 0.5 mM
Experimental: Additionally, NIH3T3 murine fibroblast cells transformed with a mutated K-ras (codon 12 Gly-Val) were tested in vitro and in nude mice.

[11] = system: IL-6 transcripts in bone marrow stromal cells; experiment: Northern blot of IL-6 transcripts in bone marrow stromal cells; format: cell-based; conditions: three-hour exposure, increasing concentrations
[12] = system: human leukemic cell line (Mo7e); experiment: GM-CSF stimulated colony formation of Mo7e cells; format: cell-based; conditions: semisolid medium, colonies counted after 10 days
Experimental: The human leukemic cell line (Mo7e) is dependent on added granulocyte-macrophage colony-stimulating factor (GM-CSF) for growth. Mo7e cells were cultured in semisolid medium with and without pentoxifylline (PTX) and rhGM-CSF. Colonies were counted 10 days after culture initiation under an inverted microscope. […] PTX thus prevents the up-regulation of activation-associated genes which inhibit proliferation.

[13] = system: NIH3T3 cell line (D5C3) transformed with temperature-sensitive v-abl; experiment: Blocking transformed phenotype of D5C3 cells; format: cell-based, murine
Experimental: An NIH3T3 cell line ([MUT]) provides target cells which were transformed by an activated oncogene. The cells were transformed with a temperature-sensitive v-abl mutant gene. This mutant gene encodes a temperature-sensitive v-abl protein that produces a non-oncogenic product at a non-permissive temperature due to a lack of tyrosine phosphorylation. The cells were incubated at the permissive temperature (33° C.) for 5 days after passage with and without pentoxifylline (1 mM).

CD3-positive lymphocytes = experiment: Proliferation and transcripts of anti-CD3 stimulated lymphocytes; format: cell-based
Experimental: In these experiments, freshly isolated, CD2-positive cells were stimulated by a solid-phase monoclonal antibody to acquire a CD3 phenotype, and then PTX was added. […] The block in proliferation could not be overcome by addition of either tumor necrosis factor (FIGS. 20 and 21) or IL-1 (FIG. 21). […] The cytokines and PTX were added at culture inception and the cells were harvested after 5 days.

[14] = system: TNFα transcripts in U937 cells; experiment: Northern blot of TNFα transcripts in LPS-induced U937 cells; format: cell-based; conditions: 1 mM PTX, LPS three hours
[15] = day 0-28, median (mean ± standard deviation)
[16] = days 0-28, median (mean ± standard deviation)
[17] = median (mean ± standard deviation)

C[C@@H](O)CCCCn1c(=O)c2c(ncn2C)n(C)c1=O [CT1501 R]
block of lyso-PA AT [1]: blocks | block of Ptd Phydr [2]: blocks

Cc1nc2sccn2c(=O)c1CCN1CCC(=C(c2ccccc2)c2ccc(F)cc2)CC1 [R 50922]
HPLC pattern (reappearance of PA after 60 seconds) ([3]; IL-1 stimulation): does not alter

GM-CSF: granulocyte-macrophage colony-stimulating factor
platelet transfusion requirements [4]: 87±69 units of platelets | red blood cell requirements [4]: 24.7±24 units of RBCs | Max Creat [5, 15]: 1.1 (1.4 ± 1.2) mg/dL | Units platelets transfused [5, 15]: 92.0 (90 ± 42) units | Bili ≥5.0 mg/dL (patients) ([5]; days 0-28): 46% | Creat ≥2.0 mg/dL (patients) ([5]; days 0-28): 17% | Infection 0-28 ([5]; days 0-28): 7% | Max Bili [5, 16]: 5.5 (7 ± 7) mg/dL | ANC ≤100 (days below 100 cells/uL) [5, 17]: 12 (12 ± 7) days | ANC ≥100 [5, 17]: 18.5 (18 ± 6) day | ANC ≥500 [5, 17]: 22.5 (23 ± 4) day | ANC ≥1,000 [5, 17]: 26.0 (26 ± 5) day | Day initial discharge [5, 17]: 37.0 (37 ± 14) day | Last plt day [5, 17]: 24.5 (26 ± 6) day | Day 100 Survival [6]: 69% | Max Creat [6, 15]: 1.5 (1.8 ± 1.4) mg/dL | Units platelets transfused [6, 15]: 74.0 (87 ± 74) units | Bili ≥5.0 mg/dL (patients) ([6]; days 0-28): 44% | Creat ≥2.0 mg/dL (patients) ([6]; days 0-28): 22% | Infection 0-28 (patients with positive bacterial blood cultures) ([6]; days 0-28): 14% | Max Bili [6, 16]: 5.0 (8 ± 10) mg/dL | ANC ≤100 (days below 100 cells/uL) [6, 17]: 5.0 (6 ± 4) days | ANC ≥100 (day on which ANC ≥100 cells/uL on two consecutive days) [6, 17]: 9.0 (8 ± 6) day | ANC ≥1,000 (day on which ANC ≥1,000 cells/uL on two consecutive days) [6, 17]: 14.0 (16 ± 9) day | Day discharge [6, 17]: 24.0 (26 ± 13) day | Last RBC day (first day RBC count ≥30% for 7 consecutive days untransfused) [6, 17]: 59.0 (63 ± 39) day | Last plt day [6, 17]: 23.0 (17 ± 11) day

CC(=O)CCCCn1c(=O)c2c(ncn2C)n(C)c1=O [Pentoxifylline]
expression of cell surface antigens (HLA-DR, CD71, CD25, CD69) (T cell proliferation; MLR-stimulated lymphocytes): decreased | blocking a proliferative response (T cell proliferation; PTX added after triggering lymphocytes in a mixed lymphocyte culture): still effective | levels of Steel factor transcripts [7]: increases | growth stimulated by IL-1 ([8]; FIG. 13A): arrested growth | proliferative effect of TNF ([8]; FIG. 13B): enhances | synthesis of IL-8 (mRNA) [9]: did not inhibit | growth ([10]; in vitro): inhibition of growth | anchorage-independent growth ([10]; soft agar): suppression | production of IL-6 transcripts [11]: increased production | GM-CSF-stimulated growth of colonies [12]: enhanced | appearance of cells ([13]; 1 mM, 33° C., 5 days): predominantly non-transformed, fibroblastic appearance | LPAAT activated by IL-1 ([1]; 1 mM): inhibited | inhibition of lyso PA acyl transferase ([1]; dose range greater than 500 μM): inhibition | inhibitory effect on LPAAT ([1]; relative to 0.5 mM): evident only at higher concentrations | PAPH activated by IL-1 ([2]; 1 mM): inhibited | inhibition of phosphatidate phosphohydrolase ([2]; dose range greater than 500 μM): inhibition | thymidine uptake (CD3-positive lymphocytes; CD2-positive T-cells, monoclonal antibody 64.1, 5 days, FIG. 21): diminished | TNF transcripts (CD3-positive lymphocytes; Northern blot, FIG. 19A): suppression | IL-2 receptor transcripts (CD3-positive lymphocytes; Northern blot, FIG. 19C): suppression | elevation of PA and DAG by IL-1 ([3]; 1 mM, all time points (15-60 seconds)): abolishes | cyclical formation of PA, and conversion of PA to DAG ([3]; 10^-11 M IL-1, 100 μM pentoxifylline, 15- and 60-second points): no change | conversion of PA to DAG ([3]; 10^-11 M IL-1, 500 μM pentoxifylline, 15 second time point): slight attenuation | elevation in levels of unsaturated, non-arachidonic PA and of the DAG derived from it ([3]; IL-1 stimulation, concentrations greater than 500 μM): obviate | TNF RNA obtained in response to LPS stimulation [14]: undetectable level

O=C(O)c1cn(C2CC2)c2cc(N3CCNCC3)c(F)cc2c1=O [Ciprofloxacin]
inhibition of the transformed phenotype ([13]; ciprofloxacin 50 μg/ml, pentoxifylline 1 mM): significant effect
